Measurements reported in patent US8268821B2, “Methods and compositions” (priority 2003, dated 2012).

System: cancer-related neuropathic pain
Assay: Open label dose escalation study of flupirtine, case studies JE and RM
Conditions: RM; ketamine for six days prior to the flupirtine trial

With `CNC1(c2ccccc2Cl)CCCCC1=O` (stereo not shown) [ketamine] the pain control was “failed to control pain”.
